Results as given in the supplement of paper PMC11208160.

Assay: recombinant UMI read abundance after kanamycin selection (control-corrected) (log10(CPM+1)); higher = more efficient recombination; extreme values may be limits of the assay; sequences stand for … in AGTGCAGAGAAAATCGGCCAGTTTTCTCTGCCTGCAGTCCGCATGCCGTGGGACCCCTTGGGTTCTAACCTGTTGCCTAGATTTATGCAGCGGACTGCCTTTCTCCCAAAGTGATAAACCGG…AGGTTGGTTTCACT; site = the 11-nt donor
Procedure, shortened: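 Under IPTG (0.07 mM) plus kanamycin, or without selection, Escherichia coli carrying a UMI-tagged donor and donor-binding-loop pair library and a target plasmid for the IS621 bridge recombinase were plated in two replicates. Recombinant UMIs were PCR-amplified across the donor–target junction and sequenced. Counts were converted to CPM, averaged over replicates, scaled by control-derived factors and reported as log10(CPM+1).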
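Note: IS621 bridge recombinase in Escherichia coli cells against a fixed T5 target plasmid.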

| Sequence | recombinant UMI read abundance (log10) |
| --- | --- |
| TGGTGTCCATGGACCGGTTTTCCCGGTAATCCGTATTTGAG (site TGGTGTCCTCT) | 0.0312 |
| TGGTTATCATGGACCGGTTTTCCCGGTAATCCGTATTTGTC (site TGGTTATCTGA) | 0.968 |
| TGTAAATCATGGACCGGTTTTCCCGGTAATCCGTATTTGTT (site TGTAAATCTAA) | 1.13 |
| TGTAACGCATGGACCGGTTTTCCCGGTAATCCGTATTTGTG (site TGTAACGCTCA) | 0.0113 |
| TGTACAACATGGACCGGTTTTCCCGGTAATCCGTATTTGAC (site TGTACAACTGT) | 0.315 |
| TGTACAACATGGACCGGTTTTCCCGGTAATCCGTATTTGAC (site TGTACACCTGT) | 0 |
| TGTACAACATGGACCGGTTTTCCCGGTAATCCGTATTTGAC (site TGTACAGCTGT) | 0 |
| TGTACAACATGGACCGGTTTTCCCGGTAATCCGTATTTGAC (site TGTACATCTGT) | 0.295 |
| TGTACACCATGGACCGGTTTTCCCGGTAATCCGTATTTGTC (site TGTACACCTGA) | 0 |
| TGTACACCATGGACCGGTTTTCCCGGTAATCCGTATTTGTC (site TGTACACCTGC) | 0 |
| TGTACACCATGGACCGGTTTTCCCGGTAATCCGTATTTGTC (site TGTACACCTGG) | 0 |
| TGTACACCATGGACCGGTTTTCCCGGTAATCCGTATTTGTC (site TGTACACCTGT) | 0 |
| TGTACAGCATGGACCGGTTTTCCCGGTAATCCGTATTTGAC (site TGTACAACTGT) | 0 |
| TGTACAGCATGGACCGGTTTTCCCGGTAATCCGTATTTGAC (site TGTACACCTGT) | 0 |
| TGTACAGCATGGACCGGTTTTCCCGGTAATCCGTATTTGAC (site TGTACAGCTGT) | 1.75 |
| TGTACAGCATGGACCGGTTTTCCCGGTAATCCGTATTTGAC (site TGTACATCTGT) | 0.647 |
| TGTACATCATGGACCGGTTTTCCCGGTAATCCGTATTTGAC (site TGTACAACTGT) | 0 |
| TGTACATCATGGACCGGTTTTCCCGGTAATCCGTATTTGAC (site TGTACACCTGT) | 0 |
| TGTACATCATGGACCGGTTTTCCCGGTAATCCGTATTTGAC (site TGTACAGCTGT) | 0 |

| Sequence | recombinant UMI read abundance (log10) |
| --- | --- |
| TGTACATCATGGACCGGTTTTCCCGGTAATCCGTATTTGAC (site TGTACATCTGT) | 0 |
| TGTAGCTCATGGACCGGTTTTCCCGGTAATCCGTATTTGAA (site TGTAGCTCTTT) | 0.301 |
| TGTAGCTCATGGACCGGTTTTCCCGGTAATCCGTATTTGGG (site TGTAGCTCTCC) | 0.0269 |
| TGTAGGACATGGACCGGTTTTCCCGGTAATCCGTATTTGAA (site TGTAGGACTTT) | 0.373 |
| TGTCAAACATGGACCGGTTTTCCCGGTAATCCGTATTTGGG (site TGTCAAACTCC) | 0.00984 |
| TGTCAGACATGGACCGGTTTTCCCGGTAATCCGTATTTGTG (site TGTCAGACTCA) | 0.0321 |
| TGTCCTACATGGACCGGTTTTCCCGGTAATCCGTATTTGGA (site TGTCCTACTTC) | 0.0197 |
| TGTCCTGCATGGACCGGTTTTCCCGGTAATCCGTATTTGTT (site TGTCCTGCTAA) | 0.011 |
| TGTCGCGCATGGACCGGTTTTCCCGGTAATCCGTATTTGCA (site TGTCGCGCTTG) | 0.897 |
| TGTCGGACATGGACCGGTTTTCCCGGTAATCCGTATTTGCG (site TGTCGGACTCG) | 1.4 |
| TGTGCACCATGGACCGGTTTTCCCGGTAATCCGTATTTGAC (site TGTACACCTGT) | 0 |
| TGTGCACCATGGACCGGTTTTCCCGGTAATCCGTATTTGAC (site TGTCCACCTGT) | 0.0317 |
| TGTGCACCATGGACCGGTTTTCCCGGTAATCCGTATTTGAC (site TGTGCACCTGT) | 0 |
| TGTGCACCATGGACCGGTTTTCCCGGTAATCCGTATTTGAC (site TGTTCACCTGT) | 0 |
| TGTGCCCCATGGACCGGTTTTCCCGGTAATCCGTATTTGTA (site TGTACCCCTTA) | 0.126 |
| TGTGCCCCATGGACCGGTTTTCCCGGTAATCCGTATTTGTA (site TGTCCCCCTTA) | 0.0113 |
| TGTGCCCCATGGACCGGTTTTCCCGGTAATCCGTATTTGTA (site TGTGCCCCTTA) | 0.0922 |
| TGTGCCCCATGGACCGGTTTTCCCGGTAATCCGTATTTGTA (site TGTTCCCCTTA) | 0.0156 |
| TGTGCTGCATGGACCGGTTTTCCCGGTAATCCGTATTTGAA (site TGTGCTGCTTT) | 0.011 |

| Sequence | recombinant UMI read abundance (log10) |
| --- | --- |
| TGTGGAACATGGACCGGTTTTCCCGGTAATCCGTATTTGTT (site AGTGGAACTAA) | 0.0127 |
| TGTGGAACATGGACCGGTTTTCCCGGTAATCCGTATTTGTT (site CGTGGAACTAA) | 0.0659 |
| TGTGGAACATGGACCGGTTTTCCCGGTAATCCGTATTTGTT (site GGTGGAACTAA) | 0 |
| TGTGGAACATGGACCGGTTTTCCCGGTAATCCGTATTTGTT (site TGTGGAACTAA) | 0.511 |
| TGTGTAACATGGACCGGTTTTCCCGGTAATCCGTATTTGAC (site TGTGTAACTGT) | 0 |
| TGTTAGGCATGGACCGGTTTTCCCGGTAATCCGTATTTGGT (site TGATAGGCTAC) | 0.0087 |
| TGTTAGGCATGGACCGGTTTTCCCGGTAATCCGTATTTGGT (site TGCTAGGCTAC) | 0.304 |
| TGTTAGGCATGGACCGGTTTTCCCGGTAATCCGTATTTGGT (site TGGTAGGCTAC) | 0.017 |
| TGTTAGGCATGGACCGGTTTTCCCGGTAATCCGTATTTGGT (site TGTTAGGCTAC) | 0.273 |
| TGTTCACCATGGACCGGTTTTCCCGGTAATCCGTATTTGAC (site TGTACACCTGT) | 0 |
| TGTTCACCATGGACCGGTTTTCCCGGTAATCCGTATTTGAC (site TGTCCACCTGT) | 0 |
| TGTTCACCATGGACCGGTTTTCCCGGTAATCCGTATTTGAC (site TGTGCACCTGT) | 0 |
| TGTTCACCATGGACCGGTTTTCCCGGTAATCCGTATTTGAC (site TGTTCACCTGT) | 0 |
| TGTTCCCCATGGACCGGTTTTCCCGGTAATCCGTATTTGTG (site TGTTCCCCTAA) | 0.00613 |
| TGTTCCCCATGGACCGGTTTTCCCGGTAATCCGTATTTGTG (site TGTTCCCCTCA) | 0.0316 |
| TGTTCCCCATGGACCGGTTTTCCCGGTAATCCGTATTTGTG (site TGTTCCCCTGA) | 0 |
| TGTTCCCCATGGACCGGTTTTCCCGGTAATCCGTATTTGTG (site TGTTCCCCTTA) | 0 |
| TGTTCCCCATGGACCGGTTTTCCCGGTAATCCGTATTTGTT (site TGTTCCCCTAA) | 0.014 |
| TGTTCCCCATGGACCGGTTTTCCCGGTAATCCGTATTTGTT (site TGTTCCCCTCA) | 0.0148 |
